The values that follow are results of earlier work, collected in patent US20050165089A1, “Compounds, compositions and methods” (priority 2003, published 2005).

The data set deals with A549 cells.
Consider `O=c1[nH]cc(F)c(=O)[nH]1` [5-fluorouracil], for which the GI50 is 1 µM.
In the case of `COc1cccc2c1C(=O)c1c(O)c3c(c(O)c1C2=O)C[C@@](O)(C(=O)CO)C[C@@H]3O[C@H]1C[C@H](N)[C@H](O)[C@H](C)O1` [doxorubicin], the GI50 is 0.063 µM.
On to `NC(=O)NO` [hydroxyurea], for which the GI50 was 500 µM.
In the case of `CC(=O)O[C@H]1C(=O)[C@@]2(C)[C@H]([C@H](OC(=O)c3ccccc3)[C@]3(O)C[C@H](OC(=O)[C@H](O)[C@@H](NC(=O)c4ccccc4)c4ccccc4)C(C)=C1C3(C)C)[C@]1(OC(C)=O)CO[C@@H]1C[C@@H]2O` [paclitaxel], the GI50 is 0.004 µM.

For orientation: GI50 means the concentration at which growth is held to half of that of the control.
